Experiments:
Assay type in all cases: cell-based, human
[1] = system: MIA PaCa-2 and PANC-1 cells; assay: RT-qPCR validation of down-regulated genes
Excerpt: The RNA-seq results are consistent with the hypothesis that G4 ligands can alter gene expression when PQs are targets in individual genes.[23] Previously, global G4-motif specific changes in the transcriptome with bisquinolinium compounds in HeLa cells have been reported using microarray analysis.[48] However, our work represents the first comprehensive analysis using state-of-the-art RNA-seq methodology. […] The observed transcriptional effects of CM03 also align with the hypothesis that down-regulation of gene expression is mediated through ligand-stabilized G4s, causing for example steric hindrance and inhibition of RNA pol II in the transcription bubble (reviewed in ref ([23])). The observations that transcriptional effects are closely aligned in two PDAC cell lines, independently sequenced, gives added confidence to these conclusions.
MIA PaCa-2 (6 h = 2.5 × 10^6 and 24 h = 1.0 × 10^6 cells/well) and PANC-1 (6 h = 1.0 × 10^6 and 24 h = 0.5 × 10^6 cells/well) cell lines were seeded in 100 mm plates and incubated overnight. […] The concentration of harvested RNA was measured with a NanoDrop 2000/2000c spectrophotometer (ThermoFisher). […] The Ct values were normalized to the genomic mean of three housekeeping genes ACTB, GAPDH, and TUBB, and the fold change was determined using 2^–ΔΔCt.

[2] = system: MIA PaCa-2 cells; assay: RNA-seq gene expression, MIA PaCa-2; conditions: for 1/2-SBSRNA4 logFC MIA PaCa-2 / A1BG logFC MIA PaCa-2 / A1BG-AS1 logFC MIA PaCa-2 / A2LD1 logFC MIA PaCa-2 / A4GALT logFC MIA PaCa-2: 300 nM gemcitabine
Excerpt: (§1) CM03 is a potent G4 ligand, as shown by the FRET and quantitative binding experiments reported here. We therefore reasoned that the potent CM03 antiproliferative activity on PDAC cells could be mediated through a G4-targeting mechanism. To test this hypothesis, we determined whether transcriptome changes upon early CM03 treatment were correlated with G4 presence in promoters and/or gene bodies. […] The time and dose of CM03 treatment were selected to reveal initial but robust mRNA changes while minimizing chronic effects due to cell toxicity. In both cell lines, the number of genes with altered expression (as defined by >0.5 increase in Log 2 of fold change [Log2 FC], or < −0.5 decrease; false discovery rate [FDR] < 0.1) increased with duration of CM03 treatment. In PANC-1 cells 2165 genes at 6 h and 3977 genes at 24 h were seen to change, while in MIA PaCa-2 cells, 5306 genes changed at 6 h and 5477 genes at 24 h compared to untreated controls (Supporting Information, Table 1). […] To validate that the targeting of G4-containing genes is not a general feature of antiproliferative agents, we also examined the effects of the first-line therapeutic agent for PDAC, gemcitabine,[37] a potent antiproliferative DNA synthesis inhibitor whose mechanism of action is G4-independent and which remains a standard therapy option in advanced PDAC. Both cell lines were treated with a range of gemcitabine concentrations (Supporting Information, Figure 4, Table 4) for 6 or 24 h.
(§2) The PDAC cell lines PANC-1 (ATCC, catalogue no. CRL-1469) and MIA PaCa-2 (ATCC, catalogue no. CRL-142) were maintained in DMEM (ThermoFisher, catalogue no. 11965092) supplemented with 10% (v/v) heat inactivated FBS (ThermoFisher) in a humidified atmosphere containing 5% CO2 at 37 °C. Cell lines were confirmed mycoplasma free by RNA-capture ELISA, and their genotypes were certified by STR profiling.
(§3) PANC-1 (0.35 × 10^6 cells/well) and MIA PaCa-2 (1.5 × 10^6 cells/well) cell lines were seeded overnight in 60 mm plates. Next day, cells were treated with 400 nM CM03 for 6 and 24 h. For gemcitabine treatment, cells were treated for 6 and 24 h with DMSO or 30 nM, 100 nM, 300 nM, 1 μM, 3 μM, and 10 μM gemcitabine-HCL for PANC-1 cells and 30 nM, 300 nM, and 3 μM gemcitabine-HCl for MIA PaCa-2 cells. Total RNA was extracted using the Qiagen RNeasy Plus Mini Kit (ThermoFisher, catalogue no. 74134) as per the manufacturer’s instructions. RNA quality (RIN > 9.0) was checked with an Aligent 2100 bioanalyzer RNA 6000 Nano Chip, and RNA concentration was quantified using a Qubit fluorometer (ThermoFisher) and Qubit RNA HS Assay Kit (Qiagen, catalogue no. Q32852). RNA-seq libraries were then generated using the Illumina Truseq RNA HT (stranded mRNA) kit (Illumina, catalogue no. RS-122–2103) as per the manufacturer’s instructions and sequenced using an Illumina HiSeq4000.
(§4) Fastq raw sequencing files were preprocessed using cutadapt[81] to remove sequencing adapters and low quality sequencing tails (options −q 10) and then aligned to the human genome (GRCh37/hg19) using tophat2[82] and using the UCSC gtf file provided by Illumina iGenomes as an annotation file (http://support.illumina.com/sequencing/sequencing_software/igenome.html). Gene counts were calculated using htseq-count[83] and the same gtf file. Differential expression analysis was done using the R package edgeR.[84] Differentially expressed genes were estimated independently for both cell lines (MIA PaCa-2 and PANC-1) and for the different time points (6 and 24 h) and were then intersected to inspect the common genes. The sequencing data is available at the GEO public functional genomics data repository (https://www.ncbi.nlm.nih.gov/geo/) as GSE105083. Details of the putative G4 sequence (PQs) analysis are given in the Supporting Information.

[3] = system: PANC-1 cells; assay: RNA-seq gene expression, PANC-1; conditions: for 1/2-SBSRNA4 logFC PANC-1 / A1BG logFC PANC-1 / A1BG-AS1 logFC PANC-1 / A2LD1 logFC PANC-1 / A4GALT logFC PANC-1: 300 nM gemcitabine
Excerpt: as §1, §2, §3, §4

SMILES: O=C1c2ccc3c4c(c(NCCN5CCCC5)cc(c24)C(=O)N1CCCN1CCOCC1)C(=O)N(CCCN1CCOCC1)C3=O [CM03, 2,7-bis(3-morpholinopropyl)-4-((2-(pyrrolidin-1-yl)ethyl)amino)benzo[lmn][3,8]phenanthroline-1,3,6,8(2H,7H)-tetraone]
- RT-qPCR expression of a small set of PDAC-pathway genes ([1]; 400 nM CM03, 6 and 24 h): transcriptionally down-regulated in both cell lines
- 1/2-SBSRNA4 Log FC ([6h] vs [Control]) MIA PaCa-2 ([2]; 400 nM CM03, 6 h): 0.2926
- A1BG Log FC ([6h] vs [Control]) MIA PaCa-2 ([2]; 400 nM CM03, 6 h): 0.4876
- A2LD1 Log FC ([6h] vs [Control]) MIA PaCa-2 ([2]; 400 nM CM03, 6 h): -0.3929
- AAAS Log FC ([6h] vs [Control]) MIA PaCa-2 ([2]; 400 nM CM03, 6 h): -0.00561
- AACS LogFC 6h MIA PaCa-2 ([2]; 400 nM CM03, 6 h): 0.2527
- 1/2-SBSRNA4 Log FC ([24h] vs [Control]) MIA PaCa-2 ([2]; 400 nM CM03, 24 h): 0.1438
- A1BG Log FC ([24h] vs [Control]) MIA PaCa-2 ([2]; 400 nM CM03, 24 h): -0.4265
- A2LD1 Log FC ([24h] vs [Control]) MIA PaCa-2 ([2]; 400 nM CM03, 24 h): 0.03755
- A4GALT Log FC ([24h] vs [Control]) MIA PaCa-2 ([2]; 400 nM CM03, 24 h): 0.6327
- AAAS Log FC ([24h] vs [Control]) MIA PaCa-2 ([2]; 400 nM CM03, 24 h): -0.483
- AACS LogFC 24h MIA PaCa-2 ([2]; 400 nM CM03, 24 h): -0.2395
- number of genes with altered expression ([3]; 400 nM CM03, 6 h, PANC-1, Log2 FC >0.5 or < −0.5, FDR < 0.1): 2165
- number of genes with altered expression ([3]; 400 nM CM03, 24 h, PANC-1): 3977
- A1BG Log FC ([6h] vs [Control]) PANC-1 ([3]; RNA-seq, 400 nM CM03, 6 h): -0.2704
- A1BG-AS1 Log FC ([6h] vs [Control]) PANC-1 ([3]; RNA-seq, 400 nM CM03, 6 h): -1.747
- A2LD1 Log FC ([6h] vs [Control]) PANC-1 ([3]; RNA-seq, 400 nM CM03, 6 h): -0.1242
- AAAS Log FC ([6h] vs [Control]) PANC-1 ([3]; RNA-seq, 400 nM CM03, 6 h): -0.01012
- AACS logFC 6h PANC-1 ([3]; RNA-seq, 400 nM CM03, 6 h): -0.1667
- A1BG Log FC ([24h] vs [Control]) PANC-1 ([3]; RNA-seq, 400 nM CM03, 24 h): -0.2368
- A2LD1 Log FC ([24h] vs [Control]) PANC-1 ([3]; RNA-seq, 400 nM CM03, 24 h): -0.09987
- AAAS Log FC ([24h] vs [Control]) PANC-1 ([3]; RNA-seq, 400 nM CM03, 24 h): -0.5132
- AACS logFC 24h PANC-1 ([3]; RNA-seq, 400 nM CM03, 24 h): 0.00469

SMILES: Nc1ccn([C@@H]2O[C@H](CO)[C@@H](O)C2(F)F)c(=O)n1 [gemcitabine, reference compound]
- RT-qPCR expression of a small set of PDAC-pathway genes ([1]; 400 nM gemcitabine, 6 and 24 h): not significantly affected
- 1/2-SBSRNA4 logFC MIA PaCa-2 ([2]; 6 h): -0.2087
- A1BG logFC MIA PaCa-2 ([2]; 6 h): 0.04195
- A1BG-AS1 logFC MIA PaCa-2 ([2]; 6 h): -0.914
- A2LD1 logFC MIA PaCa-2 ([2]; 6 h): -0.1941
- A4GALT logFC MIA PaCa-2 ([2]; 6 h): -0.8586
- 1/2-SBSRNA4 logFC MIA PaCa-2 ([2]; 24 h): -0.5295
- A1BG logFC MIA PaCa-2 ([2]; 24 h): 0.6604
- A1BG-AS1 logFC MIA PaCa-2 ([2]; 24 h): -0.1194
- A2LD1 logFC MIA PaCa-2 ([2]; 24 h): -0.3751
- A4GALT logFC MIA PaCa-2 ([2]; 24 h): -0.2021
- 1/2-SBSRNA4 logFC PANC-1 ([3]; RNA-seq, 6 h): 0.2646
- A1BG logFC PANC-1 ([3]; RNA-seq, 6 h): -0.08914
- A1BG-AS1 logFC PANC-1 ([3]; RNA-seq, 6 h): 0.1407
- A2LD1 logFC PANC-1 ([3]; RNA-seq, 6 h): -0.1053
- A4GALT logFC PANC-1 ([3]; RNA-seq, 6 h): 0.005472
- 1/2-SBSRNA4 logFC PANC-1 ([3]; RNA-seq, 24 h): 0.6908
- A1BG logFC PANC-1 ([3]; RNA-seq, 24 h): -0.1465
- A1BG-AS1 logFC PANC-1 ([3]; RNA-seq, 24 h): 1.012
- A2LD1 logFC PANC-1 ([3]; RNA-seq, 24 h): -0.7315
- A4GALT logFC PANC-1 ([3]; RNA-seq, 24 h): 0.6241

Source: publication PMC5867665, “Targeting Multiple Effector Pathways in Pancreatic Ductal Adenocarcinoma with a G-Quadruplex-Binding Small Molecule” (Journal of Medicinal Chemistry, 2018)
